The test system of one assay is A549 (lung carcinoma). The assay is described as follows: In vitro antiproliferation assay, A549 cells (TABLE 1 6 point assay; TABLE 2). The conditions noted are these: Homo sapiens. It counts as cell-based. How it is done: (§1) Certain compounds were tested against other cell types for their ability to inhibit proliferation in standard antiproliferation assays.
The test system of assay [1] is H1299 (non-small cell lung carcinoma). As to the kind of experiment: In vitro antiproliferation assay, H1299 cells (TABLE 1 6 point assay; TABLE 2). It is filed as cell-based. The conditions noted are these: Homo sapiens. The protocol: as §1
[2] abbreviates: A549, A549 cells, 6 point assay, read-out: A549, 6pt (IC50, inhibition of proliferation).
[3] abbreviates: NCI-H1299, H1299 cells, 6 point assay, read-out: H1299, 6pt (IC50, inhibition of proliferation).
[4] abbreviates: A549, 6 point assay, A549 cells, read-out: IC50, A549 cells.
The mark [5] stands for this setting: NCI-H1299, 6 point assay, H1299 cells, read-out: IC50, H1299 cells.

Like-named read-outs stand apart in the source and are kept apart here.

Data on 23 compounds can be found in patent US7868013B2, “Cycloalkyl substituted pyrimidinediamine compounds and their uses” (Rigel Pharmaceuticals, Inc., priority 2004, dated 2011).

Take `Cc1ccc(Nc2ncc(F)c(N[C@H]3[C@@H](C(N)=O)[C@@H]4C=C[C@H]3C4)n2)cc1OCCN1CCOCC1` [compound 115, (1R,2R,3S,4S)-N4-(3-Aminocarbonylbicyclo[2.2.1]hept-5-en-2-yl)-5-fluoro-N2-[4-methyl-3-(2-morpholinoethyloxy)phenyl]-2,4-pyrimidinediamine]: the IC50 (in the assay with A549 (lung carcinoma) (setting [2]); in assay [1] (setting [3])) was not above 100 nM throughout.

`Cc1cc(Nc2ncc(F)c(N[C@H]3[C@@H](C(N)=O)[C@H]4C=C[C@@H]3C4)n2)ccc1N1CCN(C)CC1` [compound 155, (1S,2R,3S,4R)-N4-(3-Aminocarbonylbicyclo[2.2.1]hept-5-en-2-yl)-5-fluoro-N2-[3-methyl-4-(4-methylpiperazin-1-yl)phenyl]-2,4-pyrimidinediamine]: the IC50 (in the assay with A549 (lung carcinoma) (setting [2]); in assay [1] (setting [3])) was 1000 to 10000 nM throughout.

For the compound `Cc1cc(Nc2ncc(F)c(NC3C4C=CC(C4)C3C(N)=O)n2)ccc1N1CCSCC1` (racemic) [compound 251, Racemic-(2-exo,3-exo)-N4-(3-aminocarbonylbicyclo[2.2.1]hept-5-en-2-yl)-5-fluoro-N2-[(3-methyl-1-thiomorpholin-4-yl)phenyl]-2,4-pyrimidinediamine], the IC50 (with A549 (lung carcinoma) (setting [4]); in assay [1] (setting [5])) was not above 100 nM each time.

Consider `CN1CCN(C(=O)Cc2ccc(Nc3ncc(F)c(N[C@H]4CCC[C@H]4C(N)=O)n3)cc2)CC1` (racemic) [compound 279, Racemic-cis-N4-(2-aminocarbonylcyclopent-1-yl)-5-fluoro-N2-{4-[(4-methylpiperazin-1-yl)-ethan-1-one-2-yl]phenyl}-2,4-pyrimidinediamine], for which the IC50 (with A549 (lung carcinoma) (setting [4]); in assay [1] (setting [5])) was 1000 to 10000 nM each time.

Consider `Cc1cc(Nc2ncc(F)c(N[C@H]3CCC[C@H]3C(N)=O)n2)ccc1N1CC(C)OC(C)C1` (mixture of isomers) [compound 283, Racemic-cis-N4-(2-aminocarbonylcyclopent-1-yl)-N2-[4-(2,6-dimethylmorpholino)-3-methyl]phenyl-5-fluoro-2,4-pyrimidinediamine], for which the IC50 (in the assay with A549 (lung carcinoma) (setting [4]); in assay [1] (setting [5])) was 100 to 1000 nM in each case.

Consider `Cc1cc(Nc2ncc(F)c(NC34CC5CC(CC3C5)C4)n2)ccc1N1CCN(C)CC1` [compound 259, 5-Fluoro-N2-[3-methyl-4-(4-methylpiperazin-1-yl)phenyl]-N4-(3-noradamantyl)-2,4-pyrimidinediamine], for which the IC50 (in the assay on A549 (lung carcinoma) (setting [4]); in assay [1] (setting [5])) was 1000 to 10000 nM in each case.

Take `CN(C)CCN1CCc2cc(Nc3ncc(F)c(N[C@@H]4[C@H](C(N)=O)[C@H]5C=C[C@@H]4C5)n3)ccc21` (racemic) [compound 160, Racemic-(2-exo,3-exo)-N4-[3-aminocarbonylbicyclo[2.2.1]hept-5-en-2-yl)-N2-[1-(2-dimethylaminoethyl)-2,3-dihydroindol-5-yl]-5-fluoro-2,4-pyrimidinediamine]: the results for the IC50 (in the assay on A549 (lung carcinoma) (setting [2]); in assay [1] (setting [3])) were 100 to 1000 nM and not above 100 nM, respectively.

For the compound `Cc1cc(Nc2ncc(F)c(N[C@H]3CCC[C@H]3C(N)=O)n2)ccc1N1CCNCC1` (racemic) [compound 107, Racemic-cis-N4-(2-amino-carbonylcyclopent-1-yl)-5-fluoro-N2-[3-methyl-4-(piperazin-1-yl)phenyl]-2,4-pyrimidinediamine], the IC50 (in the assay with A549 (lung carcinoma) (setting [2]); in assay [1] (setting [3])) was 1000 to 10000 nM in each case.

Take `NC(=O)[C@@H]1[C@H](Nc2nc(Nc3ccc(C4CCNCC4)cc3)ncc2F)[C@H]2C=C[C@@H]1C2` [compound 273, (1R,2R,3S,4S)-N4-(3-Aminocarbonylbicyclo[2.2.1]hept-5-en-2-yl)-5-fluoro-N2-[4-(piperidin-4-yl)phenyl]-2,4-pyrimidinediamine]: the IC50 in the assay with A549 (lung carcinoma) (setting [4]) was not above 100 nM; in assay [1] (setting [5]) it was 100 to 1000 nM.

On to `Cc1cc(Nc2ncc(F)c(N[C@@H]3[C@H]4CC[C@H](C4)[C@@H]3C(N)=O)n2)ccc1N1CCN(C)CC1` (racemic) [compound 240, Racemic-(2-exo,3-exo)-N4-(3-aminocarbonylbicyclo[2.2.1]hept-2-yl)-5-fluoro-N2-[3-methyl-4-(4-methylpiperazin-1-yl)phenyl]-2,4-pyrimidinediamine], for which the IC50 (in the assay with A549 (lung carcinoma) (setting [4]); in assay [1] (setting [5])) was not above 100 nM in each case.

On to `Cc1cc(Nc2ncc(F)c(NC3C4C=CC(C4)C3C(N)=O)n2)ccc1NC1CCN(C)CC1` (racemic) [compound 262, Racemic-(2-exo,3-exo)-N4-(3-aminocarbonylbicyclo[2.2.1]hept-5-en-2-yl)-5-fluoro-N2-[3-methyl-4-(1-methylpiperidin-4-ylamino)phenyl]-2,4-pyrimidinediamine], for which the IC50 (in the assay with A549 (lung carcinoma) (setting [4]); in assay [1] (setting [5])) was not above 100 nM in each case.

As for `CN1CCC(Oc2ccc(Nc3ncc(F)c(N[C@H]4[C@@H](C(N)=O)[C@@H]5C=C[C@H]4C5)n3)cc2C(F)(F)F)CC1` [compound 151, (1R,2R,3S,4S)-N4-(3-Aminocarbonylbicyclo[2.2.1]hept-5-en-2-yl)-5-fluoro-N2-[4-(1-methylpiperidin-4-yloxy)-3-trifluoromethylphenyl)-2,4-pyrimidinediamine], the IC50 (with A549 (lung carcinoma) (setting [2]); in assay [1] (setting [3])) was not above 100 nM each time.

Turning to `CCNC(=O)C1C2C=CC(C2)C1Nc1nc(Nc2ccc3c(c2)OCCN3CCN(C)C)ncc1F` (racemic) [compound 184, Racemic-(2-exo,3-exo)-N4-[3-N-ethylminocarbonylbicyclo[2.2.1]hept-5-en-2-yl)-5-fluoro-N2-{1-[2-(dimethylamino)ethyl]-3,4-dihydro-4H-benz[1,4]oxazin-6-yl}-2,4-pyrimidinediamine], the IC50 (with A549 (lung carcinoma) (setting [2]); in assay [1] (setting [3])) was not above 100 nM in each case.

With `Cc1cc(Nc2ncc(F)c(NC3C4C=CC(C4)C3C(=O)NC3CC3)n2)ccc1N1CCN(C)CC1` (racemic) [compound 164, Racemic-(2-exo,3-exo)-N4-[3-(N-cyclopropyl)aminocarbonylbicyclo[2.2.1]hept-5-en-2-yl)-5-fluoro-N2-[3-methyl-4-(4-methylpiperazin-1-yl)phenyl]-2,4-pyrimidinediamine], the IC50 (in the assay on A549 (lung carcinoma) (setting [2]); in assay [1] (setting [3])) was not above 100 nM each time.

On to `Cc1cc(Nc2ncc(F)c(N[C@@H]3[C@H](C(N)=O)[C@@H]4C=C[C@H]3C4)n2)ccc1N1CCN(C)CC1` [compound 154], for which the IC50 (in the assay with A549 (lung carcinoma) (setting [2]); in assay [1] (setting [3])) was 100 to 1000 nM each time.

On to `CN1CCN(C(=O)c2cc3cc(Nc4ncc(F)c(N[C@H]5CCC[C@H]5C(N)=O)n4)ccc3o2)CC1` (racemic) [compound 130, Racemic-cis-N4-(2-aminocarbonylcyclopent-1-yl)-5-fluoro-N2-[2-(4-methylpiperazin-1-ylcarbonyl)benzofuran-5-yl]-2,4-pyrimidinediamine], for which the IC50 (in the assay on A549 (lung carcinoma) (setting [2]); in assay [1] (setting [3])) was 1000 to 10000 nM each time.

Take `Cc1cc(Nc2ncc(F)c(N[C@H]3[C@@H](C(N)=O)[C@@H]4C=C[C@H]3C4)n2)ccc1OC1CCN(C)CC1` [compound 150, (1R,2R,3S,4S)-N4-(3-Aminocarbonylbicyclo[2.2.1]hept-5-en-2-yl)-5-fluoro-N2-[3-methyl-4-(1-methylpiperidin-4-yloxy)phenyl]-2,4-pyrimidinediamine]: the IC50 (with A549 (lung carcinoma) (setting [2]); in assay [1] (setting [3])) was not above 100 nM in each case.

Regarding `CN1CCc2cc(Nc3ncc(F)c(NC4C5C=CC(C5)C4C(N)=O)n3)ccc21` (racemic) [compound 174, Racemic-(2-exo,3-exo)-N4-[3-aminocarbonylbicyclo[2.2.1]hept-5-en-2-yl)-5-fluoro-N2-(1-methy-2,3-dihydrolindol-5-yl)-2,4-pyrimidinediamine], the IC50 (in the assay with A549 (lung carcinoma) (setting [2]); in assay [1] (setting [3])) was 100 to 1000 nM throughout.

`Cc1cc(Nc2ncc(F)c(N[C@H]3CCC[C@H]3C(=O)NCC3CC3)n2)ccc1N1CCN(C)CC1` (racemic) [compound 158, Racemic-cis-N4-[2-(N-cyclopropylmethyl)aminocarbonylcyclopent-1-yl]-5-fluoro-N2-[4-(4-methylpiperazin-1-yl)-3-methylphenyl]-2,4-pyrimidinediamine]: the IC50 lay in the range of 100 to 1000 nM in the assay on A549 (lung carcinoma) (setting [2]) and 1000 to 10000 nM in assay [1] (setting [3]).

Take `CNC(=O)C1C2C=CC(C2)C1Nc1nc(Nc2ccc3c(c2)CCN3S(C)(=O)=O)ncc1F` (racemic) [compound 181, Racemic-(2-exo,3-exo)-5-fluoro-N4-[3-methylaminocarbonylbicyclo[2.2.1]hept-5-en-2-yl)-N2-[1-methylsulfonyl-2,3-dihydroindol-5-yl]-2,4-pyrimidinediamine]: the IC50 (with A549 (lung carcinoma) (setting [2]); in assay [1] (setting [3])) was not above 100 nM throughout.

`NC(=O)C1C2C=CC(C2)C1Nc1nc(Nc2cccc(C3CCNCC3)c2)ncc1F` (racemic) [compound 267, Racemic-(2-exo,3-exo)-N4-(3-aminocarbonylbicyclo[2.2.1]hept-5-en-2-yl)-5-fluoro-N2-[3-(piperidin-4-yl)phenyl]-2,4-pyrimidinediamine]: the IC50 (in the assay on A549 (lung carcinoma) (setting [4]); in assay [1] (setting [5])) was not above 100 nM throughout.

Take `CN1CCN(c2ccc(Nc3ncc(F)c(NC4C5C=CC(C5)C4C(N)=O)n3)cc2CO)CC1` (racemic) [compound 236, Racemic-(2-exo,3-exo)-N4-(3-aminocarbonylbicyclo[2.2.1]hept-5-en-2-yl)-5-fluoro-N2-[3-hydroxymethyl-4-(4-methylpiperazin-1-yl)phenyl]-2,4-pyrimidinediamine]: the IC50 (in the assay on A549 (lung carcinoma) (setting [4]); in assay [1] (setting [5])) was not above 100 nM each time.

Regarding `Cc1cc(Nc2ncc(F)c(NC3C4C=CC(C4)C3C(N)=O)n2)ccc1O` (racemic) [compound 250, Racemic-(2-exo,3-exo)-N4-(3-aminocarbonylbicyclo[2.2.1]hept-5-en-2-yl)-5-fluoro-N2-[(4-hydroxy-3-methyl)phenyl]-2,4-pyrimidinediamine], the IC50 (with A549 (lung carcinoma) (setting [4]); in assay [1] (setting [5])) was not above 100 nM each time.
